According to patent publication US8084621B2, “3-Pyrrolo[b]cyclohexylene-2-dihydroindolinone derivatives and uses thereof” (Jiangsu Simcere Pharmaceutical R&D Co. Ltd., priority 2006, dated 2011):

System: Human Non-Small Cell Lung Cancer Cell Line (A549)
Assay: Tumor cell proliferation assay (MTT), A549
Type: cell-based
Conditions: for inhibition at 10 µM: concentration of 10^−5 mol/L, preliminary screening, 72 hours, read-out: Inhibition rate % A549; for IC50: secondary screening, 48 hours
From the text: The assay used generally is the blue tetrazolium bromide (MTT) method. […] The amount of formazan can be detected by the microplate reader through the absorption value at 570 nm. The amount of formazan product generated is proportional to the number of living cells in the sample, so the OD value may reflect the number of living cells and the ability of a test drug to inhibit or kill cells. The MTT assay may be used in determining the ability of different compounds of the present invention to inhibit one or more cancer cells proliferation. Similar assays can be designed along the same lines for any cancer cell using techniques well known in the art.
The assay used generally is the blue tetrazolium bromide (MTT) method. […] Intracellular purple formazan salt crystals can be solved in DMSO and the absorption value at 570 nm is detected by the microplate reader, then the number of living cells can be detected indirectly. So MTT assay may be used to determine the ability of a compound of the present invention to inhibit cell proliferation. Similar assays can be designed along the same lines for any cancer cell using techniques well known in the art.
2.2.2 Human Non-Small Cell Lung Cancer Cell Line (A549)
The cells of the 2.2.1, 2.2.2, 2.2.3, 2.2.4, 2.2.5 cultured with RPMI 1640 containing 12% calf serum in the condition of 37° C., 5% CO2.
2.3.1 Cell seeding: Trypsinize the cell by 0.05% trypsin-EDTA and add RPMI 1640 medium (DMEM or 5A) containing 12% calf serum. Count the number, then dilute to 1.67×10^4/ml. Add 180 ul/well to the 96 well plate (3000 cells/well).
2.3.2 Culture: cells are incubated for 24 hours at 37° C. under 5% CO2.
2.3.3 Preliminary screening: The compounds are firstly diluted to 0.1 mol/L with DMSO, and then diluted to three concentrations of 10^−5 mol/L, 10^−6 mol/L and 10^−7 mol/L. Add 20 ul test compounds to the 96 well plate and incubate for 72 hours. Each group has three parallel wells and all experiments repeat three times. Each inhibition ratio is calculated, then an average value of three times is taken as the measured value. 2.3.4 Staining 2.3.4.1 Attached cell: add 20 ul/well MTT to the 96-well plates; incubate for 4 hours in the incubator. Pour out the culture medium in the well and add 100 ul/well DMSO. Shake the plate for 5 min. 2.3.4.2 Suspension cell: add 20 ul/well MTT to the 96-well plates; incubate for 4 hours in the incubator. Add 50 ul/well 20% SDS and incubate for overnight in the incubator. 2.3.5 Reading the plates: read the absorbance A570-A630 with the Infinite M200 microtiter plate reader. Calculate the inhibition ratio of the test compounds. 2.3.6 Secondary screening: the compounds whose inhibition ratio is greater than 50% at the concentrations of 10^−5 mol/L in the preliminary screening will be picked out for Secondary screening. Dilute these compounds to ten concentrations: 10^−5 mol/L, 0.5×10^−5 mol/L, 10^−6 mol/L, 0.8×10^−6 mol/L, 0.6×10^−6 mol/L, 0.4×10^−6 mol/L, 0.2×10^−6 mol/L, 10^−7 mol/L, 0.8×10^−7 mol/L and 0.4×10^−7 mol/L. Add 20 ul test compound solution to the 96 well plate and incubate for 48 hours. Each group has three parallel wells and all experiments repeat for three times. Read the plates and calculate the inhibition ratio according to the preliminary screening method. 2.3.7 Calculate the Inhibition Ratio of Cell Proliferation and the IC50
According to the inhibition ratio of cell proliferation at the different concentrations of the compound, inhibition ratio of 50% of the test compound is calculated through the logarithm of the concentration of the compound with the Logit [I] linear regression, and an average value of three times is taken as the measured value of a sample.

| Compound | inhibition at 10 µM [%] | IC50 [µM] |
| --- | --- | --- |
| Cc1[nH]c2c(c1C(=O)N1CCN(C)CC1)CCC/C2=C1/C(=O)Nc2ccc(F)cc21 [I-14, 2-methyl-3-(4-methylpiperazine-1-carbonyl)-7-[1,2-dihydro-5-fluoro-2-oxo-3H-indol-(Z)-3-ylidene]-4,5,6,7-tetrahydro-1H-indole] | 4.43 | – |
| Cc1[nH]c2c(c1C(=O)NCC(O)CN1CCCC1)CCC/C2=C1/C(=O)Nc2ccc(F)cc21 (stereo not drawn) [I-71, N-(2-hydroxy-3-(pyrrolidin-1-yl)propyl)-2-methyl-7-[1,2-dihydro-5-fluoro-2-oxo-3H-indol-(Z)-3-ylidene]-4,5,6,7-tetrahydro-1H-indole-3-carboxamide] | 71.7 | 2.35 |
| CCN(CC)CCNC(=O)c1c(C)[nH]c2c1CCC/C2=C1/C(=O)Nc2ccc(C)cc21 [I-4, N-(2-(diethylamino)ethyl)-2-methyl-7-[1,2-dihydro-5-methyl-2-oxo-3H-indol-(Z)-3-ylidene]-4,5,6,7-tetrahydro-1H-indole-3-carboxamide] | 67.5 | 1.01 |
| Cc1[nH]c2c(c1C(=O)NCC(O)CN1CCN(C)CC1)CCC/C2=C1/C(=O)Nc2ccc(F)cc21 (stereo not drawn) [I-77, N-[2-hydroxy-3-(4-methylpiperazin-1-yl)propyl]-2-methyl-7-[1,2-dihydro-5-fluoro-2-oxo-3H-indol-(Z)-3-ylidene]-4,5,6,7-tetrahydro-1H-indole-3-carboxamide] | 50.8 | 7.12 |
| Cc1[nH]c2c(c1C(=O)NCCO)CCC/C2=C1/C(=O)Nc2ccccc21 [I-8, N-(2-hydroxyethyl)-2-methyl-7-[1,2-dihydro-2-oxo-3H-indol-(Z)-3-ylidene]-4,5,6,7-tetrahydro-1H-indole-3-carboxamide] | 0.24 | – |
| Cc1[nH]c2c(c1C(=O)NCC(O)CN1CCCCC1)CCC/C2=C1/C(=O)Nc2ccc(F)cc21 (stereo not drawn) [I-74, N-(2-hydroxy-3-(piperidin-1-yl)propyl)-2-methyl-7-[1,2-dihydro-5-fluoro-2-oxo-3H-indol-(Z)-3-ylidene]-4,5,6,7-tetrahydro-1H-indole-3-carboxamide] | 1.27 | – |
| CCN(CC)CCNC(=O)c1c(C)[nH]c2c1CCC/C2=C1/C(=O)Nc2ccc(Cl)cc21 [I-3, N-(2-(diethylamino)ethyl)-2-methyl-7-[1,2-dihydro-5-chloro-2-oxo-3H-indol-(Z)-3-ylidene]-4,5,6,7-tetrahydro-1H-indole-3-carboxamide] | 55.5 | 4.95 |
| Cc1[nH]c2c(c1C(=O)NCCO)CCC/C2=C1/C(=O)Nc2ccc(F)cc21 [I-9, N-(2-hydroxyethyl)-2-methyl-7-[1,2-dihydro-5-fluoro-2-oxo-3H-indol-(Z)-3-ylidene]-4,5,6,7-tetrahydro-1H-indole-3-carboxamide] | 16.3 | – |
| CCN(CC)CCNC(=O)c1c(C)[nH]c2c1CCC/C2=C1/C(=O)Nc2ccc(F)cc21 [I-2, N-(2-(diethylamino)ethyl)-2-methyl-7-[1,2-dihydro-5-fluoro-2-oxo-3H-indol-(Z)-3-ylidene]-4,5,6,7-tetrahydro-1H-indole-3-carboxamide] | 10.2 | – |
| Cc1[nH]c2c(c1C(=O)NCC(O)CN1CCOCC1)CCC/C2=C1/C(=O)Nc2ccc(F)cc21 (stereo not drawn) [I-68, N-(2-hydroxy-3-morpholinopropyl)-2-methyl-7-[1,2-dihydro-5-fluoro-2-oxo-3H-indol-(Z)-3-ylidene]-4,5,6,7-tetrahydro-1H-indole-3-carboxamide] | 61.1 | 5.49 |
| CCN(CC)CC(O)CNC(=O)c1c(C)[nH]c2c1CCC/C2=C1/C(=O)Nc2ccccc21 (stereo not drawn) [I-63, N-(3-(diethylamino)-2-hydroxypropyl)-2-methyl-7-[1,2-dihydro-2-oxo-3H-indol-(Z)-3-ylidene]-4,5,6,7-tetrahydro-1H-indole-3-carboxamide] | 61.8 | 2.01 |
| Cc1[nH]c2c(c1C(=O)NCC(O)CN1CCCC1)CCC/C2=C1/C(=O)Nc2ccccc21 (stereo not drawn) [I-70, N-(2-hydroxy-3-(pyrrolidin-1-yl)propyl)-2-methyl-7-[1,2-dihydro-2-oxo-3H-indol-(Z)-3-ylidene]-4,5,6,7-tetrahydro-1H-indole-3-carboxamide] | 76.3 | 1.03 |
| CCN(CC)CCNC(=O)c1c(C)[nH]c2c1CCC/C2=C1/C(=O)Nc2ccccc21 [I-5, N-(2-(diethylamino)ethyl)-2-methyl-7-[1,2-dihydro-2-oxo-3H-indol-(Z)-3-ylidene]-4,5,6,7-tetrahydro-1H-indole-3-carboxamide] | 6.71 | – |
| Cc1[nH]c2c(c1C(=O)NCC(O)CN1CCCCC1)CCC/C2=C1/C(=O)Nc2ccccc21 (stereo not drawn) [I-73, N-(2-hydroxy-3-(piperidin-1-yl)propyl)-2-methyl-7-[1,2-dihydro-2-oxo-3H-indol-(Z)-3-ylidene]-4,5,6,7-tetrahydro-1H-indole-3-carboxamide] | 2.54 | – |
